ChEMBL document CHEMBL1201862, “PubChem BioAssay data set” (2004)
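48-hour exposure; five concentrations; linearly interpolated endpoints. Abbreviation: GI50, concentration required for 50% inhibition of growth.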 Calls of active or inactive are those of the source. Rule as the data show it: active = GI50 up to about 1.1 µM and inactive = higher.

Legend:
Experiment in all cases: growth of human tumour cells (NCI), 48 h
A498 = test system: A498
A549 = test system: A549
CCRF-CEM = test system: CCRF-CEM
HCC 2998 = test system: HCC 2998
HT-29 = test system: HT-29
IGROV-1 = test system: IGROV-1
KM12 = test system: KM12
M14 = test system: M14
Malme-3M = test system: Malme-3M
OVCAR-3 = test system: OVCAR-3
SF-268 = test system: SF-268
SF-295 = test system: SF-295
SK-MEL-28 = test system: SK-MEL-28
SK-MEL-2 = test system: SK-MEL-2
SK-OV-3 = test system: SK-OV-3
TK-10 = test system: TK-10
UO-31 = test system: UO-31
SF-539 = test system: SF-539

Measured: GI50

COc1ccc2c(c1)[n+]([O-])c(-c1c(Cl)cccc1Cl)c(N)[n+]2[O-]
inactive: A498 > 100 µM | A549 45.2 µM | CCRF-CEM 57.7 µM | HCC 2998 72.3 µM | HT-29 55.5 µM | IGROV-1 47.4 µM | KM12 87.3 µM | M14 31.5 µM | Malme-3M 21.3 µM | OVCAR-3 38.9 µM | SF-268 40.6 µM | SF-295 61 µM | SK-MEL-28 29.9 µM | SK-MEL-2 26 µM | SK-OV-3 > 100 µM | TK-10 > 100 µM | UO-31 85.3 µM

COc1ccc(/C=N/n2cnc3c(c2=O)S/C(=C2/SC(=S)N(c4ccc(C)cc4)C2=O)N3c2ccccc2)cc1
inactive: A549 41.3 µM | CCRF-CEM 43.6 µM | HCC 2998 > 100 µM | HT-29 > 100 µM | IGROV-1 42.7 µM | KM12 > 100 µM | M14 19.5 µM | Malme-3M 19.7 µM | OVCAR-3 29.9 µM | SF-268 29.4 µM | SF-295 11.6 µM | SF-539 30.5 µM | SK-MEL-28 > 100 µM | SK-MEL-2 79.4 µM | SK-OV-3 > 100 µM | TK-10 > 100 µM | UO-31 > 100 µM

C=C1C(=O)C23C(O)CC4C5(C)CCCC4(C(O)OC5)C2C(OC(C)=O)CC1C3O (stereo unspecified)
inactive: A549 20.8 µM | CCRF-CEM 1.88 µM | HCC 2998 18.2 µM | HT-29 5 µM | IGROV-1 19.4 µM | KM12 9.02 µM | M14 3.41 µM | Malme-3M 14.3 µM | OVCAR-3 13.2 µM | SF-268 13.3 µM | SF-295 21.5 µM | SF-539 10.9 µM | SK-MEL-28 10.5 µM | SK-MEL-2 13.8 µM | SK-OV-3 19.7 µM | TK-10 10.9 µM | UO-31 34.5 µM

CC(C)(C)C1=CC(=N/N=c2\scc(-c3ccccc3)n2Cc2ccccc2)C=C(C(C)(C)C)C1=O
inactive: A498 > 100 µM | A549 > 100 µM | CCRF-CEM > 100 µM | HCC 2998 > 100 µM | HT-29 > 100 µM | M14 > 100 µM | Malme-3M > 100 µM | OVCAR-3 > 100 µM | SF-268 > 100 µM | SF-295 > 100 µM | SF-539 > 100 µM | SK-MEL-28 > 100 µM | SK-MEL-2 > 100 µM | UO-31 > 100 µM

CN(Cc1ccccc1)C(=NC#N)N(C)Cc1ccccc1
inactive: A549 > 100 µM | HCC 2998 > 100 µM | HT-29 > 100 µM | IGROV-1 > 100 µM | KM12 > 100 µM | M14 > 100 µM | OVCAR-3 > 100 µM | SF-268 > 100 µM | SF-295 > 100 µM | SF-539 > 100 µM | SK-MEL-28 > 100 µM | SK-MEL-2 > 100 µM | SK-OV-3 > 100 µM | TK-10 > 100 µM | UO-31 > 100 µM

CCC1C(=O)OCc2c1cc1n(c2=O)C(CC)c2c-1nc1ccccc1c2Cl (stereo unspecified)
inactive: A498 21.9 µM | A549 26.7 µM | CCRF-CEM 11.6 µM | HT-29 24.1 µM | IGROV-1 19.9 µM | KM12 24.6 µM | M14 33.7 µM | Malme-3M 38.8 µM | OVCAR-3 20.3 µM | SF-268 23.9 µM | SF-295 23.4 µM | SF-539 17.3 µM | SK-MEL-28 35 µM | SK-MEL-2 21 µM | SK-OV-3 33.9 µM | TK-10 40.9 µM | UO-31 23.9 µM

CC1=CC(C)(C)N=C2SC(c3ccc(N)cc3)=NN12
inactive: A498 63.4 µM | A549 51.9 µM | CCRF-CEM 27.9 µM | HCC 2998 > 100 µM | HT-29 32.1 µM | IGROV-1 > 100 µM | KM12 > 70.6 µM | M14 > 83.8 µM | Malme-3M > 100 µM | OVCAR-3 58.2 µM | SF-268 > 67.6 µM | SF-295 > 91.8 µM | SF-539 > 100 µM | SK-MEL-28 > 100 µM | SK-OV-3 > 100 µM | TK-10 > 100 µM | UO-31 28 µM

CCOc1ccc(NC(=O)CC2SC(N)=NC2=O)cc1 (stereo unspecified)
inactive: A549 > 100 µM | CCRF-CEM > 100 µM | HCC 2998 > 100 µM | HT-29 > 100 µM | IGROV-1 > 100 µM | KM12 > 100 µM | M14 > 100 µM | Malme-3M > 100 µM | OVCAR-3 > 100 µM | SF-268 > 100 µM | SF-295 > 100 µM | SK-MEL-28 > 100 µM | SK-MEL-2 > 100 µM | TK-10 > 100 µM | UO-31 > 100 µM

CC1=C2O[B-](c3ccccc3)(c3ccccc3)[O+]=C2C=CN1
inactive: A549 58.3 µM | CCRF-CEM 34.8 µM | HT-29 54.7 µM | IGROV-1 61.7 µM | M14 40 µM | Malme-3M 34.6 µM | OVCAR-3 2 µM | SF-295 48.2 µM | SK-MEL-28 29.6 µM | SK-OV-3 > 100 µM | TK-10 22.6 µM | UO-31 4.46 µM

CCOC(=O)C1=C(N)N(c2ccccc2)/C(=C(/C#N)c2nc3ccccc3[nH]2)S1
inactive: A498 > 100 µM | A549 > 100 µM | CCRF-CEM > 100 µM | HT-29 > 100 µM | IGROV-1 > 100 µM | M14 > 100 µM | Malme-3M > 100 µM | OVCAR-3 > 100 µM | SF-268 80.9 µM | SF-295 > 100 µM | SF-539 > 100 µM | SK-MEL-28 > 100 µM | SK-MEL-2 > 100 µM | SK-OV-3 > 100 µM | TK-10 > 100 µM | UO-31 > 100 µM

CC(C)=CCCC(C)[C@H]1CC(O)C2(C)C3=CCC4C(C)(C)[C@@H](O)CC[C@]4(C)C3=CC[C@]12C (stereo partly specified)
inactive: A498 3.98 µM | A549 2.66 µM | CCRF-CEM 5.25 µM | HT-29 2.72 µM | IGROV-1 9.29 µM | KM12 4.36 µM | M14 3.27 µM | Malme-3M 13.5 µM | OVCAR-3 3.2 µM | SF-268 6.01 µM | SF-295 2.24 µM | SF-539 2.09 µM | SK-MEL-2 23.3 µM | SK-OV-3 7.82 µM | TK-10 16.7 µM | UO-31 14.3 µM

C[N+](C)(C)C.FC(F)(F)C1(C(F)(F)F)O[SiH-]2(OC(C(F)(F)F)(C(F)(F)F)c3ccccc32)c2ccccc21
inactive: A549 10 µM | HCC 2998 19.2 µM | HT-29 11.2 µM | KM12 19.9 µM | M14 10 µM | Malme-3M 19.5 µM | OVCAR-3 18.9 µM | SF-295 4.81 µM | SF-539 11.9 µM | SK-MEL-28 26.2 µM | SK-MEL-2 17.7 µM | TK-10 16.9 µM | UO-31 14.6 µM

CN(C)c1nc(N(C)C)nc(N(C)CN(C)c2ccc(Cl)cc2)n1
inactive: A549 > 100 µM | CCRF-CEM > 100 µM | HT-29 > 100 µM | IGROV-1 > 100 µM | KM12 > 100 µM | Malme-3M > 100 µM | OVCAR-3 39 µM | SF-268 > 100 µM | SF-295 > 100 µM | SF-539 > 100 µM | SK-MEL-28 > 100 µM | SK-MEL-2 > 100 µM | SK-OV-3 > 100 µM | TK-10 > 100 µM | UO-31 > 100 µM
